From patent EP0366451A2, “The use of oxidized polyamines, especially NN'-Bis-(3-propionaldehyde)-1-4-diaminobutane (sperminedialdehyde) as immunosuppressive agents” (ORTHO PHARMACEUTICAL CORPORATION, priority 1988, dated 1990)

Tests used:
ALDH = ALDH assay in L1210/0 cells; format: biochemical, Murine; settings: SDA as substrate
Method: (§1) Cultured murine leukemic cells and livers (excised from mice immediately after cervical dislocation) were homogenized in 3 volumes of ice-cold 1.15% KCl and 1 mM EDTA. The homogenate was centrifuged at 100,000 g for 45 min and the resulting supernatant was used to measure cytosolic ALDH activity. For particulate ALDH assay, the pellet (and homogenate for total ALDH) was resuspended in homogenizing buffer and treated with 0.25% Triton X-100 for 30 min at 4°C. The solubilized preparations were centrifuged at 48,000 g for 30 min and the supernatants were drawn off for ALDH determinations.
(§2) ALDH activity was measured by monitoring the reduction of NAD or NADp for 5-6 min at […] at 37°C in DU70 spectrophotometer (Beckman). The assay mixture contained 50 mM potassium phosphate buffer, pH 7.4, 2.0 mM NAD (or NADP) and 1.0 mM EDTA. The reaction was started by adding the substrate (SDA or other aldehyde) to the prewarmed (5 min at 37°C) assay mixture containing enzyme preparation. Pyrazole (0.1 mM) was added particularly for liver enzyme, to inhibit alcohol dehydrogenase. The apparent Km and maximum velocity (Vmax) values were calculated using a Lineweaver-Burk plot based on the estimation of the slope by regression analysis. Enzyme activity was expressed as mU (nmoles/min) per mg of protein. Protein contents were determined by the Bradford method, using bovine serum albumin as the standard.

Ornithine decarboxylase = Ornithine decarboxylase (Mus musculus, UniProt P00860); test: Ornithine decarboxylase inhibition; format: biochemical; settings: Figure 10
From the text: The figure illustrates the comparative profile of the inhibition of key regulatory enzymes of polyamine synthesis by SDA, its analogue, butyl dialdehyde (BDA), difluoromethyl orinithine (DFMO) and methyl glyoxal bis (guanylhydrazone) (MGBG).

cytosolic ALDH = test: NAD-linked cytosolic ALDH assay, L1210/CPA cells; format: biochemical, Murine; settings: as substrate, L1210/CPA cytosol
Method: as §1, §2

Human B lymphocytes = test: Pokeweed mitogen driven human B cell proliferation after 1 hour incubation; format: cell-based; settings: compared with T cells; Figure 1
Method: Human T & B lymphocytes were incubated separately with different concentrations of spermine dialdehyde in vitro for 1 hour. Cells were washed extensively and set up in a PHA (for T cell) or PWM (B cell) proliferation assay. A graph is depicted wherein percentage of response is plotted as a function of concentration of spermine dialdehyde.
Peripheral blood lymphocytes (PBL) were obtained from the blood of normal donors by using standard Ficoll-Hypaque gradient techniques. The T and non-T cells were separated by standard sheep red blood cell (SRBC) rosetting technique. Briefly, 5 x 10⁶/ml PBL were incubated with 1% neuraminidase-treated SRBC, and rosetted cells were separated from non-rosetted cells in a Ficoll-Hypaque gradient. The rosetted cells were designated as T cells. Purified B lymphocytes were obtained from non-rosetted cells by removal of residual T cells using the Pan T monoclonal antibody OKT 11 and complement.
T cell proliferation: 7 x 10⁴ - 10⁵ human T lymphocytes were cultured in flat bottom microtiter plates (Flow) in the presence of 0.1% PHA-P or 1/64 PWM for 4 days. 3H-thymidine (0.1 MCi/well) was added for the last 6 hours of the culture period. […] Cell associated radioactivity was determined by scintillation counting in an automated counter. All of the results were expressed as % response calculated according to the formula: [formula] […]

[1] = target: T1, S-Adenosylmethionine Decarboxylase (AdoMet DC) (Mus musculus, UniProt P0DMN7); test: AdoMet DC inhibition in L1210 cell supernatants ([14C]CO2 release); format: biochemical, Murine
T1 construct: endogenous in cells; host or cells: murine leukemic L1210 cells (supernatant)
T1 sequence (P0DMN7 68-334 limits assumed): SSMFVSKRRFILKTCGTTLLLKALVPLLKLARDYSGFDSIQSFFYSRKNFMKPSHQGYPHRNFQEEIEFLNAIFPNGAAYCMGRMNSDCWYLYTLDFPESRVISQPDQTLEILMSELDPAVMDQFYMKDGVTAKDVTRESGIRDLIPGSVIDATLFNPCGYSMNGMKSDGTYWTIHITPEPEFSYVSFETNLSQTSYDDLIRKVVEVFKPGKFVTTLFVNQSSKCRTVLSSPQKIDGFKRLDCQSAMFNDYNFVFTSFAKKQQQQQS
T1 sequence (P0DMN7 1-67 limits assumed): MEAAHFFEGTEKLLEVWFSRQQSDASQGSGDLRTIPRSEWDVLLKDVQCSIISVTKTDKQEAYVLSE
Method: Murine leukemic L1210 cell supernatants were incubated with different concentrations of SDA or butyl dialdehyde, and AdoMet DC activity was estimated by monitoring the release of [¹⁴C] CO₂. Inhibition curves for both drugs were superimposable with IC₅₀ values of 0.12-0.13 x 10⁻³ M.

C3H mice = test: Skin graft transplant (Balb/c skin onto C3H mice); format: in vivo
Method: Spermine dialdehyde was administered s.c, right after transplantation and continued throughout the study. Cyclosporin A (CsA) was run along as a positive control.

B6D2F1 mice = test: Delayed type hypersensitivity to SRBC, footpad swelling; format: in vivo
Method: Delayed type hypersensitivity was induced in the footpad of B6D2F1 mice and swelling measured in mm. Spermine dialdehyde was administered i.p. and i.m. at various timeperiods.
Delayed type hypersensitivity was induced in the footpad of B6D2F1 mice by using sheep red blood cells (SRBC) as the antigen. Briefly, 0.2 ml of 0.01% SRBC was injected i.v. into B6D2F1 mice. Four days later, they were challenged in the footpad with 50 µl of 20% SRBC. Swelling of the footpad was measured 24, 48, and 72 hours later. Spermine dialdehyde was administered i.p. initiating from the day before immunization. After challenge in the footpad, B6D2F1 mice were given an intramuscular (i.m.) injection beside the challenge site one hour after challenge. Some mice received no i.p. administration and were only given one i.m. injection after the challenge.

Sequence of Ornithine decarboxylase (P00860 whole entry): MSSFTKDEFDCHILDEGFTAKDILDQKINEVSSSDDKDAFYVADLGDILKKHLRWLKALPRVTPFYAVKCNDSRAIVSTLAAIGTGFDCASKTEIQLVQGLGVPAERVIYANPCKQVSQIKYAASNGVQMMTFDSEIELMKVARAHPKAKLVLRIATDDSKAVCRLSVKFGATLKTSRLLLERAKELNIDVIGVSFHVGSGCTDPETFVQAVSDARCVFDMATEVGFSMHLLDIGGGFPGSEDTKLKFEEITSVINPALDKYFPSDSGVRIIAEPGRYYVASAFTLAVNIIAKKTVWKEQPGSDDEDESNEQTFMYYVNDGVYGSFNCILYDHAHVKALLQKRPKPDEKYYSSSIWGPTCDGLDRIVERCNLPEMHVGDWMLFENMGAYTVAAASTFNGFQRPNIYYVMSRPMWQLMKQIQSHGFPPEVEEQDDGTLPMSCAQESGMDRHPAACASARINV

## O=CCCNCCCCNCCC=O [SDA, NN′-Bis-(3-propionaldehyde)-1-4-diaminobutane]
ALDH
  enzyme activity in L1210/0 cells: did not exhibit any detectable enzyme activity
Ornithine decarboxylase
  inhibition of ODC (in words): inhibited both of the key enzymes
Cytosolic ALDH; NAD, ± SEM, 3-4 experiments
  Km: 41.6 µM
Cytosolic ALDH; propionaldehyde 1.0 mM
  Specific (activity of ALDH): 6.8 ± 1.6 mU/mg Protein
Human B lymphocytes
  suppression of B lymphocyte proliferation: a much greater quantity was required
[1]; Fig. 9 and Figure 10
  inhibition of AdoMet DC (in words): inhibited both of the key enzymes
[1]; Figure 9, inhibition curves superimposable, read-out: IC₅₀ values
  IC50: 120 to 130 µM
C3H mice; SDA s.c., all 3 doses, especially 10 mg/kg and 20 mg/kg, Figure 6
  skin graft survival: prolonged skin graft survival
C3H mice; mouse, in vivo
  efficacy in skin graft experiments compared with CsA: more effective than a comparable dose of CsA
B6D2F1 mice; given both systemically (i.p.) and locally (i.m.), 24 or 48 hours after challenge, Figure 7
  footpad swelling: reduced swelling
B6D2F1 mice; given only after challenge, 24 hours later
  footpad swelling: swelling similar to that of mice receiving control vehicles
B6D2F1 mice; given only after challenge, 48 hours later
  footpad swelling: reduced swelling compared to that of the control group
